The target of experiment [1] is WRN (BV08), human Werner helicase (Uniprot Q14191, amino acids 517-1235 with L1074F point mutation) (Homo sapiens (Human), UniProt Q14191, L1074F). Put plainly: WRN (BV08) ADP-Glo assay. Type of experiment: biochemical. The conditions noted are these: class symbols A-E, read-out: ADP-Glo_hWRN_IC50. On the technique in general: ADP-Glo first removes unused ATP, then detects ADP through luciferase.

Experiment [2] concerns p21 induction in HCT116 cells. Briefly: p21 induction in HCT116 cells. Type of experiment: cell-based. The conditions noted are these: Homo sapiens, HCT-116, 24 h, HCT116 cells, 24 h compound incubation; read-out: P21_EC50. The method in brief:
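EC50 from non-linear curve fit of p21 immunofluorescence (800 nm), with GAPDH (700 nm) read alongside. DMSO and a reference WRN inhibitor served as low and high controls. Cells (2,000/well) got 11 compound concentrations in duplicate for 24 h at 37 °C.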

A value given as a limit tells only on which side of the number the result lay.

Chain of WRN (BV08), human Werner helicase (Uniprot Q14191, amino acids 517-1235 with L1074F point mutation) (Q14191 other isoform, or with tags, fused parts or gaps L1074F (already in the parent)): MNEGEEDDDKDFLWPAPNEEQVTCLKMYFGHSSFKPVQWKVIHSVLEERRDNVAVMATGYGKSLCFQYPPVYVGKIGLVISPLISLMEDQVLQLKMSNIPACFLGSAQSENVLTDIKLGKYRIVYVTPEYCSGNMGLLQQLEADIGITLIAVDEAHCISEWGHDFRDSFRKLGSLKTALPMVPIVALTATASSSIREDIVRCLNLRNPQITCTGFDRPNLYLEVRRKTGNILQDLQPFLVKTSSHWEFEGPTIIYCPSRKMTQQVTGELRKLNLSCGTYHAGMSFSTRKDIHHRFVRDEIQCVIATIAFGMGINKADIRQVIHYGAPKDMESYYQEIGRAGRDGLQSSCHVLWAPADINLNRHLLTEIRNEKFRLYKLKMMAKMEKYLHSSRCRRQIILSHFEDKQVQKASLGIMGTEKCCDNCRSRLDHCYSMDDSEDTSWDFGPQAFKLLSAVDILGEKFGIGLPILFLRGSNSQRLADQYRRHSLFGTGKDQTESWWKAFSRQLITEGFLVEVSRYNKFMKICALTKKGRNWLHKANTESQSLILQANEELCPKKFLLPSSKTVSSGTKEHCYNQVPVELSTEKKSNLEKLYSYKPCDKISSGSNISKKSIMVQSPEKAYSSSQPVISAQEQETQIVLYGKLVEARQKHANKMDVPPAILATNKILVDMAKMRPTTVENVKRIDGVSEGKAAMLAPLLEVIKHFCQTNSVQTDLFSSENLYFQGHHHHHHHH

As for `CCc1c(N2CCN(C(=O)c3ncnc(C)c3O)[C@H]3CC[C@@H]32)c(=O)c2nc3nc(C)sc3nc2n1CC(=O)Nc1ccc(C(F)(F)F)cc1Cl` [I-114, N-(2-chloro-4-(trifluoromethyl)phenyl)-2-(6-ethyl-7-((1S,6S)-5-(5-hydroxy-6-methylpyrimidine-4-carbonyl)-2,5-diazabicyclo[4.2.0]octan-2-yl)-2-methyl-8-oxopyrido[2,3-b]thiazolo[4,5-e]pyrazin-5(8H)-yl)acetamide], the IC50 in experiment [1] lay within 5 to 50 nM. Further, the EC50 in experiment [2] is less than 500 nM.

As for `CCc1c(N2CCN(C(=O)c3ncnc(C)c3O)CC2)c(=O)c2nc3cc(C)sc3nc2n1CC(=O)NC12CC(C(F)(F)F)(C1)C2` [I-115, 2-(7-ethyl-6-(4-(5-hydroxy-6-methylpyrimidine-4-carbonyl)piperazin-1-yl)-2-methyl-5-oxopyrido[2,3-b]thieno[3,2-e]pyrazin-8(5H)-yl)-N-(3-(trifluoromethyl)bicyclo[1.1.1]pentan-1-yl)acetamide], in experiment [1], the IC50 was in the range of 5 to 50 nM. In addition, the EC50 in experiment [2] is more than 5000 nM.

For the molecule `CCc1c(N2CCN(C(=O)c3ncnc(C)c3O)CC2)c(=O)c2nc3c(nc2n1CC(=O)Nc1ccc(C(F)(F)F)cc1Cl)CCN3C` [I-116, N-(2-chloro-4-(trifluoromethyl)phenyl)-2-(6-ethyl-7-(4-(5-hydroxy-6-methylpyrimidine-4-carbonyl)piperazin-1-yl)-1-methyl-8-oxo-1,2,3,8-tetrahydro-5H-pyrido[2,3-b]pyrrolo[2,3-e]pyrazin-5-yl)acetamide], the IC50 in experiment [1] fell in the range of 5 to 50 nM. Moreover, the EC50 in experiment [2] fell in the range of 500 to 2000 nM.

As to `CCc1c(N2CCN(C(=O)c3ncnc(C)c3O)CC2)c(=O)c2nc(C=C3CC(OC)C3)cnc2n1CC(=O)Nc1ccc(C(F)(F)F)cc1Cl` (stereo not drawn) [I-117, N-(2-chloro-4-(trifluoromethyl)phenyl)-2-(6-ethyl-7-(4-(5-hydroxy-6-methylpyrimidine-4-carbonyl)piperazin-1-yl)-2-((3-methoxycyclobutylidene)methyl)-8-oxopyrido[2,3-b]pyrazin-5(8H)-yl)acetamide], the IC50 in experiment [1] lay within 5 to 50 nM. The EC50 in experiment [2] was less than 500 nM.

As for `CCc1c(N2CCN(C(=O)c3ncnc(C)c3O)C[C@@H]2C)c(=O)c2nc(N(C)C)nnc2n1CC(=O)Nc1ccc(C(F)(F)F)cc1Cl` [I-118, (S)—N-(2-chloro-4-(trifluoromethyl)phenyl)-2-(3-(dimethylamino)-7-ethyl-6-(4-(5-hydroxy-6-methylpyrimidine-4-carbonyl)-2-methylpiperazin-1-yl)-5-oxopyrido[3,2-e] [1,2,4]triazin-8(5H)-yl)acetamide], the IC50 in experiment [1] is 5 to 50 nM. Besides, in experiment [2], the EC50 lay in the range of 500 to 2000 nM.

Regarding `CCc1c(N2CCN(C(=O)c3ncnc(C)c3O)[C@H]3CC[C@@H]32)c(=O)c2nc(N(C)C)cnc2n1CC(=O)Nc1ccc(OC(F)(F)F)cc1` [I-120, 2-[2-(dimethylamino)-6-ethyl-7-[(1S,6S)-5-(5-hydroxy-6-methylpyrimidine-4-carbonyl)-2,5-diazabicyclo[4.2.0]octan-2-yl]-8-oxo-5H,8H-pyrido[2,3-b]pyrazin-5-yl]-N-[4-(trifluoromethoxy)phenyl]acetamide], the IC50 in experiment [1] fell in the range of 5 to 50 nM. In addition, in experiment [2], the EC50 was less than 500 nM.

With `CCc1c(N2CCN(C(=O)c3ncnc(C)c3O)[C@H]3CC[C@@H]32)c(=O)c2nc(N(C)C)cnc2n1CC(=O)Nc1ccc(C(F)(F)F)cc1F` [I-121, 2-(2-(dimethylamino)-6-ethyl-7-((1S,6S)-5-(5-hydroxy-6-methylpyrimidine-4-carbonyl)-2,5-diazabicyclo[4.2.0]octan-2-yl)-8-oxopyrido[2,3-b]pyrazin-5(8H)-yl)-N-(2-fluoro-4-(trifluoromethyl)phenyl)acetamide], the IC50 in experiment [1] is 5 to 50 nM. For the same molecule, the EC50 in experiment [2] is less than 500 nM.

As to `CCc1c(N2CCN(C(=O)c3ncnc(C)c3O)[C@H]3CCC[C@@H]32)c(=O)c2nc3cc(C)oc3nc2n1CC(=O)Nc1ccc(C(F)(F)F)cc1Cl` [I-123, 2-{11-[(4aS,7aS)-4-(5-hydroxy-6-methylpyrimidine-4-carbonyl)-octahydro-1H-cyclopenta[b]pyrazin-1-yl]-12-ethyl-5-methyl-10-oxo-4-oxa-2,8,13-triazatricyclo[7.4.0.0^{3,7}]trideca-1,3(7),5,8,11-pentaen-13-yl}-N-[2-chloro-4-(trifluoromethyl)phenyl]acetamide], the IC50 in experiment [1] fell in the range of 5 to 50 nM. Besides, the EC50 in experiment [2] is less than 500 nM.

In the case of `CCc1c(N2CCN(C(=O)c3ncnc(C)c3O)[C@H]3CC[C@@H]32)c(=O)c2cc(N(C)C)cnc2n1CC(=O)Nc1ccc(C(F)(F)F)cc1Cl` [I-124, N-[2-chloro-4-(trifluoromethyl)phenyl]-2-[6-(dimethylamino)-2-ethyl-3-[(1S,6S)-5-(5-hydroxy-6-methylpyrimidine-4-carbonyl)-2,5-diazabicyclo[4.2.0]octan-2-yl]-4-oxo-1,4-dihydro-1,8-naphthyridin-1-yl]acetamide], the IC50 in experiment [1] lay in the range of 5 to 50 nM. In experiment [2], the EC50 was less than 500 nM.

As to `CCc1c(N2CCN(C(=O)c3ncnc(C)c3O)[C@H]3CC[C@@H]32)c(=O)c2nc(C3CC3)cnc2n1CC(=O)Nc1ccc(C(F)(F)F)cc1F` [I-125, 2-(2-cyclopropyl-6-ethyl-7-((1S,6S)-5-(5-hydroxy-6-methylpyrimidine-4-carbonyl)-2,5-diazabicyclo[4.2.0]octan-2-yl)-8-oxopyrido[2,3-b]pyrazin-5(8H)-yl)-N-(2-fluoro-4-(trifluoromethyl)phenyl)acetamide], the IC50 in experiment [1] is not above 5 nM. In addition, in experiment [2], the EC50 is less than 500 nM.

In the case of `CCc1c(N2CCN(C(=O)c3ncnc(C)c3O)[C@H]3CC[C@@H]32)c(=O)c2nc(C)c(C)nc2n1CC(=O)Nc1ccc(C(F)(F)F)cc1Cl` [I-126, N-(2-chloro-4-(trifluoromethyl)phenyl)-2-(6-ethyl-7-((1S,6S)-5-(5-hydroxy-6-methylpyrimidine-4-carbonyl)-2,5-diazabicyclo[4.2.0]octan-2-yl)-2,3-dimethyl-8-oxopyrido[2,3-b]pyrazin-5(8H)-yl)acetamide], in experiment [1], the IC50 fell in the range of 5 to 50 nM. The EC50 in experiment [2] was less than 500 nM.

As for `CCc1c(N2CCN(C(=O)c3c(OC)ncc(C)c3O)[C@H]3CC[C@@H]32)c(=O)c2nc(C)c(C)nc2n1CC(=O)Nc1ccc(C(F)(F)F)cc1Cl` [I-127, N-[2-chloro-4-(trifluoromethyl)phenyl]-2-{6-ethyl-7-[(1S,6S)-5-(4-hydroxy-2-methoxy-5-methylpyridine-3-carbonyl)-2,5-diazabicyclo[4.2.0]octan-2-yl]-2,3-dimethyl-8-oxo-5H,8H-pyrido[2,3-b]pyrazin-5-yl}acetamide], in experiment [1], the IC50 fell in the range of 5 to 50 nM. Moreover, the EC50 in experiment [2] was less than 500 nM.

On to `CCc1c(N2CCN(C(=O)c3ncnc(C)c3O)[C@H]3CC[C@@H]32)c(=O)c2nc(C)c(C)nc2n1CC(=O)Nc1ccc(C(F)(F)F)cc1F` [I-128, 2-(6-ethyl-7-((1S,6S)-5-(5-hydroxy-6-methylpyrimidine-4-carbonyl)-2,5-diazabicyclo[4.2.0]octan-2-yl)-2,3-dimethyl-8-oxopyrido[2,3-b]pyrazin-5(8H)-yl)-N-(2-fluoro-4-(trifluoromethyl)phenyl)acetamide], for which the IC50 in experiment [1] was in the range of 5 to 50 nM. Moreover, the EC50 in experiment [2] was less than 500 nM.

Turning to `CCc1c(N2CCN(C(=O)c3ncnc(C)c3O)[C@H]3CC[C@@H]32)c(=O)c2nc(N(C)C)c(C)nc2n1CC(=O)Nc1ccc(C(F)(F)F)cc1F` [I-129], the IC50 in experiment [1] was in the range of 5 to 50 nM. Moreover, the EC50 in experiment [2] is less than 500 nM.

Turning to `CCc1c(N2CCN(C(=O)c3ncnc(C)c3O)[C@H]3CCC[C@@H]32)c(=O)c2nc(N(C)C)cnc2n1CC(=O)Nc1ccc(C(F)(F)F)cc1Cl` [I-130, 2-{7-[(4aS,7aS)-4-(5-hydroxy-6-methylpyrimidine-4-carbonyl)-octahydro-1H-cyclopenta[b]pyrazin-1-yl]-2-(dimethylamino)-6-ethyl-8-oxo-5H,8H-pyrido[2,3-b]pyrazin-5-yl}-N-[2-chloro-4-(trifluoromethyl)phenyl]acetamide], the IC50 in experiment [1] is 5 to 50 nM. For the same molecule, the EC50 in experiment [2] is less than 500 nM.

Take `CCc1c(N2CCN(C(=O)c3ncnc(C)c3O)CC2)c(=O)c2nc(N(C)C3CCC3)cnc2n1CC(=O)Nc1ccc(C(F)(F)F)cc1Cl` [I-131, N-[2-chloro-4-(trifluoromethyl)phenyl]-2-{2-[cyclobutyl(methyl)amino]-6-ethyl-7-[4-(5-hydroxy-6-methylpyrimidine-4-carbonyl)piperazin-1-yl]-8-oxo-5H,8H-pyrido[2,3-b]pyrazin-5-yl}acetamide]: in experiment [1], the IC50 is 5 to 50 nM. Also, the EC50 in experiment [2] was 500 to 2000 nM.

As to `CCc1c(N2CCN(C(=O)c3ncnc(C)c3O)CC2)c(=O)c2nc(N(C)C)cnc2n1CC(=O)Nc1ccc(S(F)(F)(F)(F)F)cc1Cl` [I-132, N-[2-chloro-4-(pentafluoro-lambda6-sulfanyl)phenyl]-2-[2-(dimethylamino)-6-ethyl-7-[4-(5-hydroxy-6-methylpyrimidine-4-carbonyl)piperazin-1-yl]-8-oxo-5H,8H-pyrido[2,3-b]pyrazin-5-yl]acetamide], the IC50 in experiment [1] fell in the range of 5 to 50 nM. Further, the EC50 in experiment [2] is less than 500 nM.

For the molecule `CCc1c(N2CCN(C(=O)c3ncnc(C)c3O)CC2)c(=O)c2nc(N(C)C)cnc2n1CC(=O)Nc1c(F)cc(C(F)(F)F)cc1Cl` [I-133, N-[2-chloro-6-fluoro-4-(trifluoromethyl)phenyl]-2-[2-(dimethylamino)-6-ethyl-7-[4-(5-hydroxy-6-methylpyrimidine-4-carbonyl)piperazin-1-yl]-8-oxo-5H,8H-pyrido[2,3-b]pyrazin-5-yl]acetamide], the IC50 in experiment [1] is 5 to 50 nM. Besides, the EC50 in experiment [2] was more than 5000 nM.

Source of the values: patent publication US20250034136A1 (Nimbus Wadjet, Inc., priority 2023, published 2025).
